Laboratory results taken from paper PMC4979471 (Cell Death Discovery, 2015).
Where two headings read alike, the source gives them in different places.

Experiments:
Assay in all cases: Kinase selectivity, P33-radiolabeled assay
Format in all cases: biochemical
Details in all cases: 10 μM ATP
[1] = biological target: T1, NEK2 (Homo sapiens, UniProt P51955)
T1 construct: purchased Reaction Biology Corp
T1 sequence (P51955 1-445): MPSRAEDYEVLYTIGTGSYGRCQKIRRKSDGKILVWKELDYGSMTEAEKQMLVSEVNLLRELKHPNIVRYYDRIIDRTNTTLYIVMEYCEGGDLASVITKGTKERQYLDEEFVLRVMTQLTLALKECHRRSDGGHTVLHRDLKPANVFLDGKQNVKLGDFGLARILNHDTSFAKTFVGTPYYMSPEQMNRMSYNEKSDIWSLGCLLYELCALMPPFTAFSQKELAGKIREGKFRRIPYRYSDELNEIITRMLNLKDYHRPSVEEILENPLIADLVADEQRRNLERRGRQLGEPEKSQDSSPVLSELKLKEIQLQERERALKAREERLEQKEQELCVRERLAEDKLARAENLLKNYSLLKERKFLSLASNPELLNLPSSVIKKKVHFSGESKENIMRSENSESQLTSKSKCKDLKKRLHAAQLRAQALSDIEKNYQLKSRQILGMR
How it was run: (§1)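 Duplicate single-concentration testing used 10 μM compound. The ATP concentration was also 10 μM.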

[2] = biological target: T2, p70S6Kb/RPS6KB2 (Homo sapiens, UniProt Q9UBS0)
T2 construct: purchased Reaction Biology Corp
How it was run: as §1

[3] = biological target: T3, MSK2/RPS6KA4 (Homo sapiens, UniProt O75676)
T3 construct: purchased Reaction Biology Corp
How it was run: as §1

[4] = biological target: T4, STK16 (Homo sapiens, UniProt O75716)
T4 construct: purchased Reaction Biology Corp
How it was run: as §1

[5] = biological target: T5, PLK4/SAK (Homo sapiens, UniProt O00444)
T5 construct: purchased Reaction Biology Corp
T5 sequence (O00444 1-970): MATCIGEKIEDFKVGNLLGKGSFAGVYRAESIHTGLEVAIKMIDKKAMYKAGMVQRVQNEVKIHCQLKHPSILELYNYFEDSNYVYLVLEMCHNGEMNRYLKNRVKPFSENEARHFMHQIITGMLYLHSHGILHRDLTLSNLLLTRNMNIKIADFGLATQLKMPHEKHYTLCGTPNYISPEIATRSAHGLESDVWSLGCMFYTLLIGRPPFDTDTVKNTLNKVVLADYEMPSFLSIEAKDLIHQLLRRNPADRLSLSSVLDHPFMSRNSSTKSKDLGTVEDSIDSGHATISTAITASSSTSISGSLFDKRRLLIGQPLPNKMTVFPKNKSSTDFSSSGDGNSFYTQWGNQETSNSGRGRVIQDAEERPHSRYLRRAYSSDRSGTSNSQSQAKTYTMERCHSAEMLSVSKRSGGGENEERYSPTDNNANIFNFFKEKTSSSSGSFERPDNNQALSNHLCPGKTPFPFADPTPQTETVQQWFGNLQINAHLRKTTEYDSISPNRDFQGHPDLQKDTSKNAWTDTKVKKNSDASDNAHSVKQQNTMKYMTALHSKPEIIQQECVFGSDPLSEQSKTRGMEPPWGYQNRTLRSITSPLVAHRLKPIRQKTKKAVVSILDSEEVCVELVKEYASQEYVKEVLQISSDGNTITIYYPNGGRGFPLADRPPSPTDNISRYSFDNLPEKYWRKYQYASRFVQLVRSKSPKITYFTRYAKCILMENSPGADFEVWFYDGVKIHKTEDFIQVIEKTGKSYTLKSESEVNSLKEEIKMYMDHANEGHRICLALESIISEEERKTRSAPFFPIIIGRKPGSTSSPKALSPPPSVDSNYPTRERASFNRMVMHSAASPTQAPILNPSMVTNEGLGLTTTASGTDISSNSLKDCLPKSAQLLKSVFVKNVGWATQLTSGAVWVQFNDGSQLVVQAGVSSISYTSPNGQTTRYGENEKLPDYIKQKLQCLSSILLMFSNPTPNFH
How it was run: as §1

[6] = biological target: T6, PKD2/PRKD2 (Homo sapiens, UniProt Q9BZL6)
T6 construct: purchased Reaction Biology Corp
T6 sequence (Q9BZL6 1-878): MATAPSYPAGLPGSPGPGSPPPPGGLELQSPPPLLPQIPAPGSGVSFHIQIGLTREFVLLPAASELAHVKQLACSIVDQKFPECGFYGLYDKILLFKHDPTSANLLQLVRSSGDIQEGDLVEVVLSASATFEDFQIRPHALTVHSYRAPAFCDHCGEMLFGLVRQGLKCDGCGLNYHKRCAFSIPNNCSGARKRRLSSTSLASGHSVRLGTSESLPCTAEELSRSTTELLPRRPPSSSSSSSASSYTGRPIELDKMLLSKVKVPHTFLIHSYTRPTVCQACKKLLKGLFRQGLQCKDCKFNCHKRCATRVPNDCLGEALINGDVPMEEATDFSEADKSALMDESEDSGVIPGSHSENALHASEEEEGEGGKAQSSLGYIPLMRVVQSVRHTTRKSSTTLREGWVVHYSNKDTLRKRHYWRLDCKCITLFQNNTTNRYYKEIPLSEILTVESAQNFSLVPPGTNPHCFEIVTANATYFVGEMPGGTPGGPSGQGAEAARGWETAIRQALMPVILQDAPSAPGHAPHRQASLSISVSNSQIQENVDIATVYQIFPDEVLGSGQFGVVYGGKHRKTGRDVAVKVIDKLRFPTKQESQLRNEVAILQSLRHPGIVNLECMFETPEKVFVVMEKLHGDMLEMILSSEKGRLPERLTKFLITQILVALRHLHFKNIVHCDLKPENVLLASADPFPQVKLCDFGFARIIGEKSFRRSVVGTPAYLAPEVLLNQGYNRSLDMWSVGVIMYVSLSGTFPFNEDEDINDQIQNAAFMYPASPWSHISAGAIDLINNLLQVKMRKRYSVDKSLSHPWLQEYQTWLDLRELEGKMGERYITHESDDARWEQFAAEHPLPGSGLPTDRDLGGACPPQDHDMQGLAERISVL
How it was run: as §1

[7] = read-out: % Enzyme Activity (relative to DMSO controls) AVG
[8] = read-out: % Enzyme Activity (relative to DMSO controls) Data 1
[9] = read-out: % Enzyme Activity (relative to DMSO controls) Data 2

T4 sequence (O75716 whole entry): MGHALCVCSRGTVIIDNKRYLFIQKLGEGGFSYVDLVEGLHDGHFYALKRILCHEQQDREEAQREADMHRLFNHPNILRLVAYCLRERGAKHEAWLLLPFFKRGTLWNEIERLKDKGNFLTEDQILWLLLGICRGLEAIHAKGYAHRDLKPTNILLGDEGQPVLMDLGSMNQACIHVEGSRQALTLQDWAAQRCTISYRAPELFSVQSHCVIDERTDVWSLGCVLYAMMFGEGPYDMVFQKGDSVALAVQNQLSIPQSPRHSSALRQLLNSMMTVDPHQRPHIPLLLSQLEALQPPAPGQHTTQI
T3 sequence (O75676 whole entry): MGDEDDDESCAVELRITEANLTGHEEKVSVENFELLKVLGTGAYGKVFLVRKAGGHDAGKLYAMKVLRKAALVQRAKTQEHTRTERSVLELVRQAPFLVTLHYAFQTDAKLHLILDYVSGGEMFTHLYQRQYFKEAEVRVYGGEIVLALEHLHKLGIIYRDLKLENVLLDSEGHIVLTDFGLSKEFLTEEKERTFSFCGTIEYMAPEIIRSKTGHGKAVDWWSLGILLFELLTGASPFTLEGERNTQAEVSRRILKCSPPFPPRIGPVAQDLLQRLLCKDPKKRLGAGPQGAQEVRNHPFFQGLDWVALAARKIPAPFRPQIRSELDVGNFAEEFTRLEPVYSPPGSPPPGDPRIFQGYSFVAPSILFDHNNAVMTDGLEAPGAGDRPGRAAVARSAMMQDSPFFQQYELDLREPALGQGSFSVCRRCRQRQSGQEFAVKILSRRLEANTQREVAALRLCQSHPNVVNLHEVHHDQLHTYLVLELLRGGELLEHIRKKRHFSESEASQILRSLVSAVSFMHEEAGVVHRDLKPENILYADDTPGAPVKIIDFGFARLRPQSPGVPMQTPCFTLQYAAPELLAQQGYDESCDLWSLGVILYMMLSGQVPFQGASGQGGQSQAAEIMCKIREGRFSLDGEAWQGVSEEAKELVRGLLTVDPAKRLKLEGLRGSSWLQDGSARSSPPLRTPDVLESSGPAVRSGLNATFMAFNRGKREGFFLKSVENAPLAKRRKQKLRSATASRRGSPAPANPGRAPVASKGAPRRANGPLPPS
T2 sequence (Q9UBS0 whole entry): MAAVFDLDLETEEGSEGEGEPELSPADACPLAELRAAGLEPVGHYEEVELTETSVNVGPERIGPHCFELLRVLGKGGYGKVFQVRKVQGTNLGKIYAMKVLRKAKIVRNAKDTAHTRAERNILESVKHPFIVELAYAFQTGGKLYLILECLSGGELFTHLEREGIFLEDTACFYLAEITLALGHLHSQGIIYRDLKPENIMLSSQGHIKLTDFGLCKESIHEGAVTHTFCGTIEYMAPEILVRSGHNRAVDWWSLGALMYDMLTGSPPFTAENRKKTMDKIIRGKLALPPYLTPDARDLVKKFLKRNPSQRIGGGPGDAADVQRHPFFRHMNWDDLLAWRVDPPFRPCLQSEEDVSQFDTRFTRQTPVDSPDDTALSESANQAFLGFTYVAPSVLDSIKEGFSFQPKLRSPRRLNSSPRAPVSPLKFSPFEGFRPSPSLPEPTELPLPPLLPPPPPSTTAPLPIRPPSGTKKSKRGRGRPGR

CC(C)(C)C(=O)N1N=CC[C@H]1c1ccccc1 [GSK′963]
remaining activity at 10 µM [1, 7]: 107% | remaining activity at 10 µM [1, 8]: 108% | remaining activity at 10 µM [1, 9]: 106% | remaining activity at 10 µM [2, 7]: 100% | remaining activity at 10 µM [2, 8]: 102% | remaining activity at 10 µM [2, 9]: 98% | remaining activity at 10 µM [3, 7]: 104% | remaining activity at 10 µM [3, 8]: 104% | remaining activity at 10 µM [3, 9]: 103% | remaining activity at 10 µM [4, 7]: 101% | remaining activity at 10 µM [4, 8]: 101% | remaining activity at 10 µM [4, 9]: 101% | remaining activity at 10 µM [5, 7]: 113% | remaining activity at 10 µM [5, 8]: 114% | remaining activity at 10 µM [5, 9]: 112% | remaining activity at 10 µM [6, 7]: 102% | remaining activity at 10 µM [6, 8]: 101% | remaining activity at 10 µM [6, 9]: 104%
